In ChEMBL document CHEMBL1201862, “PubChem BioAssay data set” (2004):
Calls of active or inactive are those of the source.

Assays:
[1] = biological target: T1, Beta-adrenergic receptor kinase 1 (Homo sapiens, UniProt P25098); assay: GRK2 inhibitors displacing RNA aptamer, dose response, biochemical, flow cytometry beads, FAM-aptamer, powder set 1 (AID 588720)
T1 sequence (P25098 whole entry): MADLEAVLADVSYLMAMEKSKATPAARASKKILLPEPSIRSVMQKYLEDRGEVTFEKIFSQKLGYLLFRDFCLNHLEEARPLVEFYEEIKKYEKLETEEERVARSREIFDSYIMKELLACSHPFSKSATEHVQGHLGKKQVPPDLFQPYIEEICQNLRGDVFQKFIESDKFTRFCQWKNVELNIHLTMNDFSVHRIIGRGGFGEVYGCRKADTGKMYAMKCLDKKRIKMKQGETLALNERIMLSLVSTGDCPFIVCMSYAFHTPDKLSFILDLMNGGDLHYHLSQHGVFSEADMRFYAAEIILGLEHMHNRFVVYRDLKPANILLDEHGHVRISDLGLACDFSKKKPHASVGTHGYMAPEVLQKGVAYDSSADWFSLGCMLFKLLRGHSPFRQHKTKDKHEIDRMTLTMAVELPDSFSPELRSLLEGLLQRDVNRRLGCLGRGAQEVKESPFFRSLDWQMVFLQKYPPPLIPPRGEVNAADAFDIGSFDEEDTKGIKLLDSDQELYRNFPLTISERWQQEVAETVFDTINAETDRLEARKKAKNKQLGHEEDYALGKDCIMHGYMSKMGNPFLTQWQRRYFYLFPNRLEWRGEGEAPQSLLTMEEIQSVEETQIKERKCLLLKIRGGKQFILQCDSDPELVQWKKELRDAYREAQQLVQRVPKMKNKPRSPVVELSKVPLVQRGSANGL

[2] = system: HeLa; assay: HeLa cell cytotoxicity, dose response, cytotoxicity control for MITF activator project, CellTiter-Glo luminescence, cherry-pick samples (AID 540259); type: functional, cell-based; settings: Homo sapiens
[3] = system: HEK293; assay: cells; type: functional, cell-based; settings: Homo sapiens
[4] = biological target: T2, Nuclear receptor subfamily 0 group B member 1 (Homo sapiens, UniProt P51843); assay: Luminescence-based cell-based high throughput dose response assay for inhibitors of the orphan nuclear receptor subfamily 0, group B, member 1 (DAX1; NR0B1). [Related pubchem assays (depositor defined):AID504766, AID504790]; type: functional
T2 sequence (P51843 whole entry): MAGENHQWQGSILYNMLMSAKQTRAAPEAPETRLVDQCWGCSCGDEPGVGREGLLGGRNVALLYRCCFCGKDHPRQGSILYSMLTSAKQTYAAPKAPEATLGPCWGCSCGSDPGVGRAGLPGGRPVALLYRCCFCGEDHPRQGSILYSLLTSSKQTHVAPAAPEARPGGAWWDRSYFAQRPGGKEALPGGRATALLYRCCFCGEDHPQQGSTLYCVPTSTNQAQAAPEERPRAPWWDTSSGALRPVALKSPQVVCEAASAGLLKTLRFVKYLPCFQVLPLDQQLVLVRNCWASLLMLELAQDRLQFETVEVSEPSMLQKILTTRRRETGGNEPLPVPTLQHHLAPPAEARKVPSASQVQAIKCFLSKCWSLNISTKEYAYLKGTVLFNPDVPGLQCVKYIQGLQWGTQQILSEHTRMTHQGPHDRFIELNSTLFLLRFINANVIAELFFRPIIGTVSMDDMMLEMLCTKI

[5] = biological target: T3, CAAX prenyl protease 2 (Saccharomyces cerevisiae S288c, UniProt Q03530); type: biochemical
T3 sequence (Q03530 whole entry): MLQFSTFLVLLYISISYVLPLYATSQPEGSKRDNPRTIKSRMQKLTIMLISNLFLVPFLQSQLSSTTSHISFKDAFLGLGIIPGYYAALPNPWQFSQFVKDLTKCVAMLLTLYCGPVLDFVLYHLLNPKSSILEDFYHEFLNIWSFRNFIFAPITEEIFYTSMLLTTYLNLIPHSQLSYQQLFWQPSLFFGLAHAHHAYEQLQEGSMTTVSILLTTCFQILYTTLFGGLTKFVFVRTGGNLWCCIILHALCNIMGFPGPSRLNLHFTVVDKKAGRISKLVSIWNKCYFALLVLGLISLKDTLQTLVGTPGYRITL

[6] = biological target: Trypsin (Sus scrofa, UniProt P00761); assay: porcine trypsin inhibitors, dose response, selectivity assay for Rce1 protease inhibitor project, biochemical, quenched peptide fluorescence, cherry-pick (AID 488789)
Chain of Trypsin (P00761 whole entry): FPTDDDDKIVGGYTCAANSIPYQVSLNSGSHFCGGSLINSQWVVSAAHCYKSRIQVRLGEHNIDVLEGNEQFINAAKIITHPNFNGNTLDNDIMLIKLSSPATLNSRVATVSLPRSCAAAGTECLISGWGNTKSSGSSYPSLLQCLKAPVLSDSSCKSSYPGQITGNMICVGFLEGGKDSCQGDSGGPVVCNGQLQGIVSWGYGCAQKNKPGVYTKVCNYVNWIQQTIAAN

[7] = biological target: Large T antigen (Simian virus 40, UniProt P03070); type: functional, Betapolyomavirus macacae;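 note: Confirmatory-stage PubChem screen for compounds that inhibit SV40 T antigen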
Chain of Large T antigen (P03070 whole entry): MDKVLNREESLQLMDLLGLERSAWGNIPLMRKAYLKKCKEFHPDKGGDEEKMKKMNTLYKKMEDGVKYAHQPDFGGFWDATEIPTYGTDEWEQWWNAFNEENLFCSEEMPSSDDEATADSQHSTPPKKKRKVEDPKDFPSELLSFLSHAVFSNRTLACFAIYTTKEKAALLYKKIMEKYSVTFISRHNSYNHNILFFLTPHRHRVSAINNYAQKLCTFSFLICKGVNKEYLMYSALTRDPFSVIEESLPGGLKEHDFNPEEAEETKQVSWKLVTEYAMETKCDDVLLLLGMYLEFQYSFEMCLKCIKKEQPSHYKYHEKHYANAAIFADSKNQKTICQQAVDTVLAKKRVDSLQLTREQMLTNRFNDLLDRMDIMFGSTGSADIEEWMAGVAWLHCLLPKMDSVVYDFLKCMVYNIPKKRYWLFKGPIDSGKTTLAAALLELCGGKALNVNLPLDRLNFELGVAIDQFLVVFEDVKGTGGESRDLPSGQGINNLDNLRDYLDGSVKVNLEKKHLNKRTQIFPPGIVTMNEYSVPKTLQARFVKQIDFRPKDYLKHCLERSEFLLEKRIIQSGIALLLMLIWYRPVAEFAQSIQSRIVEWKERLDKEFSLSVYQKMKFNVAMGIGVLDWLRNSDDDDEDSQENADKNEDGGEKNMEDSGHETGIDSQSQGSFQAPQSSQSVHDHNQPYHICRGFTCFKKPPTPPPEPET

[8] = biological target: CAAX prenyl protease 2 (Homo sapiens, UniProt Q9Y256); assay: human Rce1 protease inhibitors, dose response, biochemical, yeast membranes, quenched-peptide fluorescence, cherry-pick (AID 588849)
Chain of CAAX prenyl protease 2 (Homo sapiens, UniProt Q9Y256) (Q9Y256 whole entry): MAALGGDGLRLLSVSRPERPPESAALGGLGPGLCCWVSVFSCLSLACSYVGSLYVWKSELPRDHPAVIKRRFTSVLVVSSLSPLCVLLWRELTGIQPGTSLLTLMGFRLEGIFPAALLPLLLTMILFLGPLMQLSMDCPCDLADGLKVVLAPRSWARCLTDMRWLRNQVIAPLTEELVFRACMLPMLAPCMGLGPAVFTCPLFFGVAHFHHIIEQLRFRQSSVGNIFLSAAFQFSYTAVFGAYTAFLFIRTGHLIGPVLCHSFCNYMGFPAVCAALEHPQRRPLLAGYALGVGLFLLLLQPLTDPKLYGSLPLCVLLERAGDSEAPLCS

[9] = system: Streptococcus sp. 'group A'; assay: growth inhibition of control SK(-) GAS strain, dose response, counter-screen for streptokinase expression inhibitor project, luminescence, kanamycin, BacTiterGlo, confirmation (AID 1900); type: functional, organism-based
[10] = biological target: T4, Zinc finger protein mex-5 (Caenorhabditis elegans, UniProt Q9XUB2); assay: MEX-5/TCR-2 RNA interaction inhibitors, dose response, biochemical, C. elegans, fluorescence polarization (AID 1960)
T4 sequence (Q9XUB2 whole entry): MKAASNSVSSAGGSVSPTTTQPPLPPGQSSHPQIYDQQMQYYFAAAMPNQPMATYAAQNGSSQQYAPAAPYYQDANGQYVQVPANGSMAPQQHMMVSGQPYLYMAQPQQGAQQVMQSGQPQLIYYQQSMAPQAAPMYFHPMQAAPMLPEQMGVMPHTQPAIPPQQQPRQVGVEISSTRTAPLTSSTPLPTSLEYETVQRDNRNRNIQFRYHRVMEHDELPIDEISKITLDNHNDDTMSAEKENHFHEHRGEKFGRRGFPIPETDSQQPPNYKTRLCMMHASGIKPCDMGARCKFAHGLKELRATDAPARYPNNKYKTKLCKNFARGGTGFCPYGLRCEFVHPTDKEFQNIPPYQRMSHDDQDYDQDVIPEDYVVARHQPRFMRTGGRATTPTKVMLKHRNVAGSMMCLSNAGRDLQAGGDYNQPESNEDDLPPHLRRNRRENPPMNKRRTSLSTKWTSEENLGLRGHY

[11] = system: Escherichia coli; assay: microbe, parasite or virus in culture
[12] = biological target: T5, RNA-binding protein pos-1 (Caenorhabditis elegans, UniProt G5EF15); assay: inhibitors of POS-1/mex-3 RNA binding, dose response, biochemical, fluorescence polarization (AID 1964);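 note: purified POS-1 fused to maltose binding protein made in E. coli; potency of compounds blocking POS-1 binding to fluorescent RNA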
T5 sequence (G5EF15 whole entry): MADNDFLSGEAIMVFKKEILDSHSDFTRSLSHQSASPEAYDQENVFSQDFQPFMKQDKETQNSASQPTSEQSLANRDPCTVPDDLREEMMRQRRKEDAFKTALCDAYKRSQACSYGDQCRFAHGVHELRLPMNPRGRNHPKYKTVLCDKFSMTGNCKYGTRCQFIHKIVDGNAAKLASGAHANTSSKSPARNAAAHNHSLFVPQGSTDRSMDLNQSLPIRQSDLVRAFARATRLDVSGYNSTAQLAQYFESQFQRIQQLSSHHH

[13] = system: Streptococcus; assay: Group A Streptococcus viability loss, dose response, counter-screen for streptokinase expression inhibitor project, luminescence, BacTiterGlo (AID 1915); type: functional, organism-based;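 note: potency for reduction of bacterial viability or growth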
[14] = system: Escherichia coli; assay: microbe, parasite or virus in culture; remark: listed apart in the source
[15] = off-target signal loss in HeLa-CEM21 co-culture – HeLa F-luc CTL cells, cherry-picked, counter-screen for HIV-1 Env fusion inhibitor project, dose response (AID 652040); type: functional, cell-based;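 note: potency for signal decrease marking cytotoxic or nonspecific inhibition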
[16] = inhibitors of clade B AD8 Env fusion, dose response, cell-based, cherry-pick (AID 652062); type: functional;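 note: luciferase signal from cell-cell fusion driven by HIV-1 clade B AD8 Env; potency is for inhibitors of fusion seen as a drop in luminescence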
[17] = ZM109 Env clade C HIV-1 fusion inhibitors, dose response, HeLa effector, CEM target cells, luciferase, cherry-pick (AID 652058); type: functional, cell-based
[18] = Luminescence Cell-Based Dose Retest to Confirm Inhibitors of Cancer Stem Cells. [Related pubchem assays (depositor defined):AID2717, AID2721]; type: functional; settings: Homo sapiens
[19] = CEM21 lymphoblast cell cytotoxicity, dose response, cytotoxicity control for viral fusion inhibitor project, CellTiter-Glo luminescence, cherry-picked (AID 652042); type: functional, cell-based;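 note: potency for signal decrease meaning cytotoxicity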
[20] = biological target: T6, Heat shock factor protein 1 (Mus musculus, UniProt P38532); assay: HSF1 potentiators in luciferase reporter cells, confirmation, cell-based, NIH3T3, luminescence, dose retest (AID 435004); type: functional;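 note: stress induced by proteasome inhibitor MG132 added 30 min after compound; luciferase reporter driven by HSF1 response element in NIH3T3 cells; actives raise luminescence as potentiators of the MG132 stress response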
T6 sequence (P38532 whole entry): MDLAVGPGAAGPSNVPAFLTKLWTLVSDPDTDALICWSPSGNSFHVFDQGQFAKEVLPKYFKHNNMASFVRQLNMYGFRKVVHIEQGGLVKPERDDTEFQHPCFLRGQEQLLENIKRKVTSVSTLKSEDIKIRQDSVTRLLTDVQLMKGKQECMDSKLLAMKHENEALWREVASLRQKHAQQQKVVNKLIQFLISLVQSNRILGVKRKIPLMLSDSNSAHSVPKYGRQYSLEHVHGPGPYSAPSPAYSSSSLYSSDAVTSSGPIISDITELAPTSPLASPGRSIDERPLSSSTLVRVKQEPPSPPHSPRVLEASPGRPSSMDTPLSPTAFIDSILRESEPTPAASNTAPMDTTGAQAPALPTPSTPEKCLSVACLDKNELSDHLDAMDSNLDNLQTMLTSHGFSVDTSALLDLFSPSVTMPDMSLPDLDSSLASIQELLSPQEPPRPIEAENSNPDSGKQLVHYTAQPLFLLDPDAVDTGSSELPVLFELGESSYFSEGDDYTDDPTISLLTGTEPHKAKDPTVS

[21] = system: HEK293; assay: cells; settings: Homo sapiens
[22] = biological target: T7, Streptokinase A (Streptococcus pyogenes serotype M1, UniProt P10520); assay: S. pyogenes streptokinase expression inhibitors, potency, dose response, plasminogen activation absorbance, OD405 (AID 1914); type: functional, Streptococcus pyogenes M1 GAS;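 note: secreted streptokinase activity via plasminogen activation per viability signal from cell pellet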
T7 sequence (P10520 whole entry): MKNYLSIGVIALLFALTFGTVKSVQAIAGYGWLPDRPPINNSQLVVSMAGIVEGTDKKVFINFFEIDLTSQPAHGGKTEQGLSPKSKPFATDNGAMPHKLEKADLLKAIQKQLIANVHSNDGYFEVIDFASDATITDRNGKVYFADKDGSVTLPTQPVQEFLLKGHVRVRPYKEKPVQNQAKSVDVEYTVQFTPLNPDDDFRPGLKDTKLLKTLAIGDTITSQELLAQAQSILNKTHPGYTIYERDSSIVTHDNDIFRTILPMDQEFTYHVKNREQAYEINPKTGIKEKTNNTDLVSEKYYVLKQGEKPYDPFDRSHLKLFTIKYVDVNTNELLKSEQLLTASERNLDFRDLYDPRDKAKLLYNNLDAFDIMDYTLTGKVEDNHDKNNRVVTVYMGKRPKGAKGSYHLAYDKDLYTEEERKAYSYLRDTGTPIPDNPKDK

[23] = system: Streptococcus; assay: Luminescence Microorganism-Based Dose Response Follow up to Identify Compounds Cytotoxic to Streptococcus. [Related pubchem assays: 1677 (Project Summary), 1915, 1914, 1902 (Retest at Dose), 1900 (Counter Screen), 1662 (Primary HTS)]; type: functional, organism-based
[24] = biological target: Heat shock protein HSP 90-alpha (Homo sapiens, UniProt P07900); type: functional, organism-based
[25] = inhibitors of HIV Env-driven cell fusion, dose response, cherry-pick (AID 652057); type: functional, cell-based
[26] = system: HEK293; assay: cells; settings: Homo sapiens; remark: listed apart in the source
[27] = system: Vero; assay: cells; type: functional, Chlorocebus sabaeus; settings: Chlorocebus sabaeus, Vero
[28] = system: INS1; assay: protection from cytokine-induced mitochondrial depolarization, dose response, cell-based, INS-1E, JC-1 fluorescence ratio, dry powder (AID 488931); type: functional; settings: Rattus norvegicus
[29] = system: INS1; assay: protection of INS-1E cells from cytokine death, dose response, ATP luminescence, dry powder (AID 488844); type: functional, cell-based; settings: Rattus norvegicus

COC(=O)c1ccc(NC(=O)CCS(=O)(=O)c2ccc(Br)cc2)cc1
EC50 [1]: 6.56 µM (active)

CCCc1cc(-c2ccc3c(c2)COc2c4ccccc4nn2-3)on1
AC50 [2]: 40 µM (active)

CC(=O)Nc1cc(C)c2nc(NC(C)=O)sc2c1
IC50 [3]: > 67.6 µM (inactive) | IC50 [4]: > 67.6 µM (inactive)

CN1CC(C(=O)O)Cc2c1ccc1ccccc21 (stereo not given)
AC50 [5]: 9.61 µM (active) | AC50 [6]: 5.17 µM (active) | IC50 [7]: 19.4 µM (active) | AC50 [8]: 7.4 µM (active)

CN(C)c1ccc(O)c2c1CC1CC3C(N(C)C)C(=O)C(C(N)=O)=C(O)[C@@]3(O)C(=O)C1=C2O (stereo not given in full)
EC50 [9]: 0.078 µM (active) | EC50 [10]: 37 µM (active) | AC50 [11]: 11.4 µM (active) | EC50 [12]: > 300 µM (not active) | EC50 [13]: 0.184 µM (active) | AC50 [14]: 1.78 µM (active)

CC(=O)N(C)c1ccc(OCC(O)Cn2c3ccc(Cl)cc3c3cc(Cl)ccc32)cc1 (stereo not given)
AC50 [15]: 2.47 µM (active) | EC50 [9]: 2.7 µM (active) | AC50 [16]: 4.49 µM (active) | AC50 [17]: 2.38 µM (active) | AC50 [18]: 1.59 µM (active) | AC50 [19]: 23.2 µM (active) | EC50 [20]: > 260 µM (inactive) | EC50 [21]: > 59.6 µM (inactive) | EC50 [22]: 2.66 µM (active) | EC50 [23]: 9.63 µM (active) | EC50 [13]: 80.6 µM (active) | AC50 [24]: 5.12 µM (active) | AC50 [25]: 2.19 µM (active) | EC50 [26]: > 59.6 µM (inactive)

COc1ccc(-n2c(Cc3cccn3C)nnc2SCC(=O)Nc2ccc(C(C)=O)cc2)cc1
AC50 [11]: 56.8 µM (active)

OCCCNc1ncnc2sc(-c3ccccc3)cc12
AC50 [6]: 7.39 µM (active) | AC50 [8]: 8.43 µM (active)

CC(=O)Oc1ccccc1C(=O)C=Cc1cccc([N+](=O)[O-])c1
CC50 [27]: 16.5 µM (active) | EC50 [21]: > 59.6 µM (inactive) | AC50 [24]: 3.01 µM (active) | EC50 [26]: > 59.6 µM (inactive)

Cc1ccc(S(=O)(=O)N(C)C[C@@H]2Oc3c(NC(=O)Nc4ccccc4)cccc3C(=O)N([C@@H](C)CO)C[C@H]2C)cc1
AC50 [28]: 81.6 µM (active) | AC50 [29]: 27 µM (active)

O=C(CCCC(=O)N1CCN(c2ccccc2F)CC1)c1ccccc1
IC50 [3]: > 67.5 µM (inactive) | IC50 [4]: > 67.5 µM (inactive)

CCCC(=O)c1ccc(N2CCCCCC2)c(F)c1
AC50 [2]: 205 µM (active)
